Experimental findings from PubChem BioAssay (NCI) are described below.

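Five compound concentrations were applied to cells in 96-well plates for 48 hours; endpoints were derived by simple linear interpolation of the resulting dose-response curve. TGI denotes the concentration required for complete inhibition of growth.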

Assay in all cases: NCI-60 cell line screen, 48 h
Test [1] has as its system MDA-MB-231 breast.
The test system of test [2] is SN12C renal.
Test [3] has as its system HT29 colon.
For test [4], the system named is SK-MEL-5 melanoma.
In test [5] the test system is SK-MEL-2 melanoma.
The subject of test [6] is CCRF-CEM leukemia.
Test [7] concerns RPMI-8226 leukemia.
Test [8] has as its system CAKI-1 renal.
In test [9] the test system is OVCAR-8 ovarian.
For test [10], the system named is A549 NSCLC.
Test [11] concerns COLO 205 colon.
The test system of test [12] is MALME-3M melanoma.
In test [13] the test system is U251 CNS.
For test [14], the system named is UACC-257 melanoma.
Test [15] has as its system K-562 leukemia.

With `CCOC(=O)/C=C/CCO[Si](C)(C)C(C)(C)C`, the TGI in [1], in test [2], in [3], in [4], in test [5] and in test [6] was greater than 100 µM in each case. Besides, the TGI in test [7], in [8], in [9], in test [10], in test [11] and in test [12] was greater than 100 µM in each case. The TGI in test [13], in test [14] and in test [15] was greater than 100 µM throughout.
`Clc1cc(Cl)cc(N=C/C=C/Nc2cc(Cl)cc(Cl)c2)c1`: the TGI came to 30.2 µM in test [1]; 38.8 µM in test [2]; 28.5 µM in test [3]; 34.2 µM in test [4]; 40.7 µM in test [5]; 60.9 µM in test [6]. Moreover, the TGI in test [7] is 76.9 µM; in test [8], 38.2 µM; in [9], 42.5 µM; in test [10], 43.1 µM; in [11], 30.2 µM; in test [12] it was greater than 100 µM. The results for the TGI in test [13], in test [14] and in test [15] were 33.5 µM, greater than 100 µM and 66.2 µM, respectively.
For `COC(=O)c1ccc(S)c(S(=O)(=O)Nc2n[nH]c(N)n2)c1`, the TGI in test [1], in [2], in [3], in test [4], in test [5] and in test [6] was greater than 100 µM throughout. Besides, the TGI in test [7], in test [8], in test [9], in [10], in test [11] and in [12] was greater than 100 µM throughout. Also, the TGI in [13], in test [14] and in [15] was greater than 100 µM throughout.
`O=C1CSC2(CC(/C=C/c3cccc([N+](=O)[O-])c3)=NN2c2cccc(S(=O)(=O)O)c2)N1c1nc2ccccc2s1` (stereo unspecified): the TGI was 43.5 µM in [1]; 49.9 µM in [2]; greater than 100 µM in test [3]; greater than 100 µM in test [4]; 47.9 µM in test [5]; 48.3 µM in test [6]. Besides, the TGI was 39.2 µM in test [7]; greater than 100 µM in test [8]; 30.7 µM in test [9]; 69.2 µM in test [10]; greater than 100 µM in [11]; greater than 100 µM in test [12]. The TGI in test [13] was 36.3 µM; in test [14] it was greater than 100 µM; in test [15], greater than 100 µM.
Turning to `O=C(c1cccs1)N(C(=S)OCCOc1ccccc1)c1ccccc1`, the TGI in test [1] worked out at 61.9 µM; in test [2] it was 55.5 µM; in test [3], 96.5 µM; in [5] it was 55.6 µM; in test [6], 59.4 µM; in test [7], 53.9 µM. Further, the TGI in test [8] was 83.8 µM; in [9], 87.8 µM; in [10], greater than 100 µM; in test [11], 42.4 µM; in test [12], 69.9 µM; in [13] it was 48.8 µM. Moreover, the figures for the TGI in test [14] and in test [15] were 69.9 µM and greater than 100 µM, respectively.
With `CCOP1(=O)CC(C)=C(Cl)C(O)C1` (stereo unspecified), the TGI in test [1], in test [2], in [3], in test [4], in test [5] and in test [6] was greater than 100 µM throughout. In addition, the TGI in test [7], in test [8], in [9], in test [10], in test [11] and in test [12] was greater than 100 µM each time. Moreover, the TGI in [13], in test [14] and in [15] was greater than 100 µM throughout.
For the molecule `COc1ccc(OC)c(CNc2ccc(C(=O)O)cc2)c1`, the TGI in test [1], in [3], in test [4], in test [5], in [6] and in [7] was greater than 100 µM each time. Further, the TGI in test [8], in [9], in [10], in [11], in test [12] and in [13] was greater than 100 µM throughout. The TGI in [14] and in test [15] was greater than 100 µM each time.
With `NC(=O)C(=CNC(=S)Nc1ccccc1)C(N)=O`, the TGI in test [1], in [2], in test [3], in test [4], in test [5] and in test [6] was greater than 100 µM in each case. Moreover, the TGI in test [7], in [8], in [9], in test [10], in test [11] and in test [12] was greater than 100 µM in each case. The TGI in test [13], in test [14] and in [15] was greater than 100 µM throughout.
With `CC(=O)NC1C(OCc2ccccc2)OC(CO)C(O)C1OC(C)C(=O)NC(C)C(=O)NC(CCC(=O)NCCCCNc1c2ccccc2nc2cccc([N+](=O)[O-])c12)C(N)=O` (stereo unspecified), the TGI in [1] came out at 0.118 µM; in test [2], 0.313 µM; in test [3], 0.0362 µM; in [4], 0.119 µM; in [5] it was 0.393 µM; in test [6], 0.578 µM. Further, the TGI in test [7] amounted to 0.0629 µM; in test [8], 0.307 µM; in test [9], 0.166 µM; in [10], 0.838 µM; in test [11], 0.0506 µM; in [12], 0.131 µM. Also, the TGI turned out to be 0.303 µM in [13], 0.509 µM in [14] and 12.5 µM in test [15].
Turning to `CCOC(=O)NNC(=O)NCc1cccc(CNC(=O)NNC(=O)OCC)c1`, the TGI in test [1], in [2], in test [3], in test [4], in test [5] and in test [6] was greater than 100 µM each time. For the same molecule, the TGI in test [7], in test [8], in test [9], in [10], in test [11] and in [12] was greater than 100 µM in each case. In addition, the TGI in test [13], in test [14] and in test [15] was greater than 100 µM throughout.
Consider `Nc1ccc2c(c1)nc1n2C(c2c(F)cccc2F)SC1` (stereo unspecified), for which the TGI in [1], in test [2], in test [3], in test [4], in [5] and in test [6] was greater than 100 µM in each case. Further, the TGI in test [7], in test [8], in test [9], in test [10], in test [11] and in [12] was greater than 100 µM throughout. For the same molecule, the TGI in [13], in test [14] and in test [15] was greater than 100 µM throughout.
With `CCOC(=O)c1sc2nc(SC)nc3c2c1NCN3c1ccc2c(c1)OCO2`, the TGI in test [1] was 43 µM; in test [2], greater than 100 µM; in [3], greater than 100 µM; in test [4], greater than 100 µM; in test [5], 58.8 µM; in test [6], 32.9 µM. The TGI in test [7] was greater than 100 µM; in [8], greater than 100 µM; in test [9], 20.1 µM; in [10] it was 25.4 µM; in test [11], greater than 100 µM; in [12], 53.2 µM. The TGI in test [13] is 23.1 µM; in test [14], greater than 100 µM; in test [15] it was greater than 100 µM.
Take `CSC(=S)Nc1cccc(C)n1`: the TGI in [1], in test [2], in test [3], in test [4], in [5] and in [6] was greater than 100 µM throughout. In addition, the TGI in test [7], in test [8], in [9], in [10], in test [11] and in test [12] was greater than 100 µM throughout. The TGI in test [13], in test [14] and in test [15] was greater than 100 µM in each case.
Regarding `N#Cc1c2c(c(N)oc1=O)C(c1ccccc1)CC(=O)N2` (stereo unspecified), the TGI in test [1], in [2], in [3], in test [4], in test [5] and in [6] was greater than 100 µM throughout. The TGI in [7], in [8], in test [9], in test [10], in test [11] and in test [12] was greater than 100 µM each time. Moreover, the TGI in [13], in [14] and in test [15] was greater than 100 µM throughout.
With `O=C(N/N=C/c1ccc([N+](=O)[O-])cc1)Nc1ccc(C(=O)O)cc1`, the TGI in [1] was greater than 100 µM; in test [2] it was greater than 100 µM; in [3] it was greater than 100 µM; in test [4], 45.9 µM; in [5], 83.9 µM; in test [6], greater than 100 µM. The TGI is greater than 100 µM in [7]; greater than 100 µM in test [8]; greater than 100 µM in [9]; greater than 100 µM in test [10]; 81 µM in test [11]; greater than 100 µM in [12]. Besides, the TGI in [13], in [14] and in test [15] was greater than 100 µM in each case.
Turning to `c1ccc2oc(-c3ccc(-c4nc5ccccc5o4)c4c3CC4)nc2c1`, the TGI in [1], in test [2], in [3], in test [4], in test [5] and in test [6] was greater than 100 µM each time. The TGI in [7], in test [8], in test [9], in [10], in test [11] and in test [12] was greater than 100 µM in each case. Further, the TGI in test [13], in test [14] and in [15] was greater than 100 µM in each case.
In the case of `CC(C)=CCN1CC(C)C(=O)Nc2ccccc21` (stereo unspecified), the TGI in test [1], in test [2], in [3], in [4], in test [5] and in test [6] was greater than 100 µM in each case. Moreover, the TGI in test [7], in [8], in [9], in test [10], in [11] and in [12] was greater than 100 µM in each case. Also, the TGI in [13], in test [14] and in test [15] was greater than 100 µM each time.
Regarding `C[N+]12C=CC=C1C(N1CCCC1)c1scc(-c3ccccc3)c12` (stereo unspecified), the TGI was greater than 100 µM in test [1]; 70 µM in test [2]; 24.4 µM in [3]; 27.6 µM in test [4]; 42.3 µM in [5]; greater than 100 µM in [6]. Also, the TGI in test [7] was greater than 100 µM; in test [8], greater than 100 µM; in test [9] it was greater than 100 µM; in test [10] it was greater than 100 µM; in test [11] it was 41.2 µM; in test [12] it was 49.8 µM. In addition, the TGI in [13] was greater than 100 µM; in test [15] it was 29.1 µM.
Turning to `CCCCCCCC1(N=[N+]=[N-])C(=O)Nc2ccccc2C1=O` (stereo unspecified), the TGI is 41.3 µM in test [1]; 34.4 µM in [2]; 56.8 µM in test [3]; 28.4 µM in [4]; 32.7 µM in test [5]; 95.4 µM in [6]. For the same molecule, the TGI was greater than 100 µM in [7]; 27.8 µM in test [8]; 28 µM in [10]; 36.3 µM in test [11]; 33.4 µM in [12]; 28.8 µM in [13]. For the same molecule, the TGI in test [14] turned out to be 41.2 µM; in [15], 61.3 µM.
